According to patent US7355079B2, “Thyronamine derivatives and analogs and methods of use thereof” (The Regents of the University of California, priority 2003, dated 2008):
Entries after “also recorded” stand apart in the source; their conditions may differ.

Assays:
[1] = molecular target: T1, rat trace amine receptor (rTAR-1) (Rattus norvegicus, UniProt Q923Y9); test: cAMP accumulation in HEK cells stably expressing rTAR-1; type: cell-based
T1 construct: expressed in transfected cells
Procedure: To test this, the synthetic iodo-thyronamines were assayed for their ability to stimulate cAMP accumulation in human embryonic kidney (HEK) cells stably expressing rTAR-1, as well as cells transfected with an empty vector. […] To address the issue of receptor selectivity, all of the iodo-thyronamines were tested for their ability to activate the dopamine receptors and the β-adrenergic receptors.
(§1) cAMP Assay. HEK293 cells were harvested in Krebs-Ringer-HEPES buffer (KRH) and preincubated in KRH with 200 μM 3-isobutyl-methylxanthine. For drug treatments cells were incubated in KRH with 100 μM 3-isobutyl-1-methylxanthine with the test compound (or 10 μM forskolin) for 1 hour at 37° C. The cells were then boiled for 20 minutes after adding an equal volume of 0.5 mM sodium acetate buffer, centrifuged to remove cell debris, and the resulting extract was analyzed for cAMP content using competitive binding of [^3H]cAMP to a cAMP binding protein (Diagnostic Products Corp., Los Angeles, Calif.). Data were normalized according to protein content as determined using the Bradford reagent (Bio-Rad). Concentration-response curves were plotted and EC50 values calculated with Prism software (GraphPad, San Diego, Calif.).

[2] = molecular target: T2, mouse TAR-1 (Mus musculus, UniProt Q923Y8); test: cAMP assay, activation of mouse TAR-1; type: cell-based
T2 construct: expressed in transfected cells
Procedure: as §1

[3] = test system: C57Bl/6J mice; test: core body temperature of mice injected intraperitoneally or intracerebrally; type: in vivo; settings: mouse, intraperitoneal or intracerebral injection
Procedure: Eight week old male C57 Black 6J (C57Bl/6J) mice were injected intraperitoneally (i.p.) with the indicated dose of 3-iodothyronamine (T1AM) dissolved in 60% DMSO and normal saline (pH 7.4). Mice were injected intraperitoneally with a dose of T1AM at 18.75, 37.5, or 75 mg/kg body weight. Core body temperature was measured as rectal temperature every 30 minutes for the first 2 hours and then again at 3, 4, and 24 hours post injection. The core body temperature response (with standard error) to each dose reflects the response of 7-8 mice in a room maintained at 24° C.
Core body temperature response was measured in an adult male C57Bl/6J mouse injected intraperitoneally with a dose of T1AM at 100 mg/kg T1AM. The mouse was implanted with a telemetry-emitting temperature sensing probe for more accurate measurement of core body temperature.
Thermal response was measured in an adult male C57Bl/6J mouse to a unilateral intracerebroventricular injection of T1AM dissolved in 60% DMSO/40% normal saline at a dose of 6.6 mg/kg body weight. The mouse was instrumented with a telemetry-emitting temperature sensing probe.

[4] = test system: C57Bl/6J mice; test: heart rate and blood pressure responses in mice; type: in vivo; settings: mouse, i.p. approximately 75-80 mg/kg
Procedure: Heart rate and blood pressure responses were measured in an adult male C57Bl/6J mouse injected intraperitoneally with T1AM in 60% DMSO/40% normal saline at a dose of approximately 75-80 mg/kg body weight in two replicate experiments.
Heart rate and blood pressure responses were measured in two drug naive adult male C57Bl/6J mouse following intraperitoneal injection of T1AM at a dose of approximately 75 mg/kg body weight.

[5] = test system: C57Bl/6J mice; test: blood glucose levels of mice injected intraperitoneally; type: in vivo, mouse; settings: 50 mg/kg
Procedure: (BTC; ambient temperature −31° C.).

[6] = test system: mice; test: responses of mice within minutes of T1AM injection; type: in vivo, mouse
From the text: (§2) One of the most consistent clinical findings in individuals with severe hypothyroidism is depression. […] The underlying mechanism of this potentiation remains to be elucidated. Other physiological manifestations of depression that may also have a TH component include thermoregulatory disturbances, decreased metabolic rate, decreased cardiorespiratory fitness, inactivity, and hyperglycemia. Recently we discovered 3-iodothyronamine (T1AM), a novel endogenous metabolite of TH (Scanlan et al., Nature Medicine 10:638, 2004) that is a potent agonist of rodent and human G protein-coupled trace amine associated receptors (Lindemann et al., Genomics 85:372, 2005).

[7] = test system: ex vivo rat heart preparation; test: ex vivo rat heart preparation, cardiac output
From the text: as §2

[8] = i.v. serum half-life; settings: iv

T1 sequence (Q923Y9 whole entry): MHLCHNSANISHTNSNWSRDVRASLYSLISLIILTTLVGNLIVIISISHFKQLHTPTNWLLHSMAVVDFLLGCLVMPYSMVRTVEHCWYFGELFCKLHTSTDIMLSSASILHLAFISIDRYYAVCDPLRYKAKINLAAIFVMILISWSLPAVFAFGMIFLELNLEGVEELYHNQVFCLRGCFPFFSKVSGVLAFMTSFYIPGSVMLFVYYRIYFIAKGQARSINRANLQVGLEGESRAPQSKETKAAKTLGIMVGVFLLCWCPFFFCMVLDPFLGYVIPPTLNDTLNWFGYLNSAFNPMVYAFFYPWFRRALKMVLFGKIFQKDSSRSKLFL
T2 sequence (Q923Y8 whole entry): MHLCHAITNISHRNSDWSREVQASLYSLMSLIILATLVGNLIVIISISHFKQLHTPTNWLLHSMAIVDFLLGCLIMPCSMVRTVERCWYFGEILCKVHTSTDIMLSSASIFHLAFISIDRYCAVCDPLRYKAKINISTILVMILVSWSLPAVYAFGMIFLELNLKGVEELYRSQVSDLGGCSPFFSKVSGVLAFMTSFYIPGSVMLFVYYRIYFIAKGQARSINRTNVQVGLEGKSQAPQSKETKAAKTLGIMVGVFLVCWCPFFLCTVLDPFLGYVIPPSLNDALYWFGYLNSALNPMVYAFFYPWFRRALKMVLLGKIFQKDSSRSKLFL

In the case of `Cl.NCCc1ccc(Oc2ccc(O)cc2)c(I)c1` [Compound T1AM, 3-iodothyronamine Hydrochloride], the EC50 [1] is reported as 14 nM, the “binding to the TAR receptor using a cAMP assay” value [1] is reported as “high affinity” and the “increase in agonist potency for rTAR-1 relative to T0AM” value ([1]; addition of a single iodine atom to the 3-position of T0AM) is reported as ~10 fold. The EC50 [2] was 112 nM, the “core body temperature after injection (decrease from approximately 38° C.)” value [3] was “approximately 29 °C” and the “period of decreased core body temperature” value [3] was 6.5 to 8 h. For the same compound, the “heart rate throughout the treatment period” value [4] was “remained constant”, the blood pressure ([4]; Hydrochloride) was “varied with the drop in body core temperature, but recovered to normal levels; also recorded: varied with the drop in body core temperature, but returned to normal levels” and the “hyperglycemia when body temperature is held constant” value ([5]; body temperature near 37° C. (BTC; ambient temperature ~31° C.)) was “still significant, but the effect is smaller in magnitude”. The blood glucose levels ([5]; i.p., room temperature (21° C.-22° C.), Hydrochloride) was “increase blood glucose levels; also recorded: significant increase in blood sugar levels”, the “response of mice within minutes of injection” value [6] was “reduction in their metabolic rate, body temperature, locomotor activity, and heart rate while blood glucose becomes elevated” and the cardiac output [7] was “rapidly reduce cardiac output”. For the same compound, the half-life [8] was 2 to 2.5 h.
